The record followed here is patent publication US20230255197A1, “INFLUENCE OF THE MORPHOLOGICAL AND THE STRUCTURAL CHANGES ON THE ANTIMICROBIAL ACTIVITIES OF TITANATE NANOWIRES” (BOARD OF TRUSTEES OF THE UNIVERSITY OF ARKANSAS, priority 2022, published 2023).

The assay relates to E. coli cells. As to the kind of experiment: E. coli growth in LB medium in 96-well plates, cell growth monitored by absorbance at 600 nm. Type of assay: cell-based. The conditions noted are these: 37° C., O.D. at 600 nm = 0.25, read from FIG. 2, chloramphenicol:nanomaterial w/w 1:10. As for the experimental part:
In step (3), to test the antimicrobial efficiency, solution of E. coli cells were inoculated into fresh LB medium and incubated at 37° C. overnight. In one embodiment, 5µL solution of E. coli cells was inoculated into 2 ml of fresh LB medium. Sample of the overnight culture was transferred into each well of a 96-well plate and further grown with 200 µL fresh LB medium. To test antimicrobial activities, different concentrations of antimicrobial agents alone, TiO2 alone, and TiO2 nanowires - chloramphenicol complex were added to the LB medium with E. coli cells. It should be noted that same procedure was followed to prepare different concentrations (1, 2, 3, 4, and 5 µg/ml) of either chloramphenicol alone, nanomaterials alone or a mixture of both. Three identical replicates were prepared on the plate for each assigned material. Then, the 96-well plates were sealed with an oxygen-permeable membrane and the cell growth was monitored by reading the absorbance at 600 nm with microplate readers at 37° C. continuously. Equal amounts of chloramphenicol were mixed with each sample of the assigned version of nanomaterials (Na-TiO2 and K-TiO2) with a w/w ratio of 1:10. […]

Turning to `O=C(N[C@H](CO)[C@H](O)c1ccc([N+](=O)[O-])cc1)C(Cl)Cl` [chloramphenicol], the “concentration of chloramphenicol necessary to reach the same O.D. reading 0.25 (same degree of antimicrobial activity)” value came out at 5 µg/mL.
